Measurements as given in patent EP0562575B1, “N-substituted-3-(substituted hydrazino)-benzenesulfonamide derivative, preparation process thereof, and herbicidal compositions” (KUREHA KAGAKU KOGYO KABUSHIKI KAISHA, priority 1992, dated 1993).
Where two headings read alike, the source gives them in different places.

Columns and labels:
Assay type in all cases: in vivo
Amaranthus retroflexus [1] = test: Germination test of seeds (Petri dish); conditions: A.r., seeds in Petri dish, 28 °C, 14 days
Method: (§1) Two sheets of filter paper were placed in a superposed relation in each of Petri dishes having a diameter of 9 cm. Water suspensions of each test compound (concentrations of the active ingredient: 0.25 ppm and 2.5 ppm) were separately poured in an amount of 6ml per dish into the Petri dishes. Seeds of Amaranthus retroflexus, (Redroot pigweed), Bidens pilosa (Common blackjack), Matricaria chamomilla (Wild chamomile), Solanum nigrum (Black nightshade), Echinochloa crus-galli(Barnyard grass), Cyperus iria (Rice flatsedge) and Setaria viridis (Green foxtail) were placed at a rate of 10 seeds per dish in the Petri dishes. They were thereafter allowed to germinate in a constant-temperature chamber at 28 °C. Fourteen days later after placement in the Petri dishes, the degrees of germination and growth inhibition were observed visually. The observation results were ranked in accordance with the below-described 6-stage system.

Bidens pilosa [2] = test: Germination test of seeds (Petri dish); conditions: B.p., seeds in Petri dish, 28 °C, 14 days
Method: as §1

Cyperus iria = test: Germination test of seeds (Petri dish); conditions: C.i., seeds in Petri dish, 28 °C, 14 days
Method: as §1

Echinochloa crus-galli = test: Germination test of seeds (Petri dish); conditions: E.c., seeds in Petri dish, 28 °C, 14 days
Method: as §1

Matricaria chamomilla [3] = test: Germination test of seeds (Petri dish); conditions: M.c., seeds in Petri dish, 28 °C, 14 days
Method: as §1

Setaria viridis [4] = test: Germination test of seeds (Petri dish); conditions: S.v., seeds in Petri dish, 28 °C, 14 days
Method: as §1

Solanum nigrum [5] = test: Germination test of seeds (Petri dish); conditions: S.n., seeds in Petri dish, 28 °C, 14 days
Method: as §1

Abutilon theophrasti = test: Test on herbicidal activity by foliar application; conditions: A.t; 50 g/ha foliar spray, 2 - 4 leaf stage, 14 days
Text: (§2) Herbicidal solutions of each test compound, which had been prepared by dissolving at predetermined concentrations such as wettable powder of the test compound as that described in the above formulation example, and sprayed at dosages of 5 g/ha and 50 g/ha over foliar parts of Amaranthus retroflexus, (Redroot pigweed), Bidens pilosa (Common blackjack), Sinapis arvensis (Wild mustard), Stellaria media (Common chickweed), Cassia obtusifolia (Sicklepod), Solanum nigrum (Black nightshade), Abutilon theophrasti (Velvetleaf), Convolvulus arvensis (Field bindweed), Matricaria chamomilla (Wild chamomile), Setaria viridis (Green foxtail), Echinochloa frumentaceum (Barnyard grass), Avena fatua (Wild oat), and Digitaria adscendens (Henry crabgrass) which had been allowed to grow individually to 2 - 4 leaf stage in pots. Fourteen days later after spraying of the test compound, its herbicidal acrivity was evaluated in accordance with the below-described system.
(§3) 0: no effects 1: less than 30% of total kill 2: 31 - 50% of total kill 3: 51 - 70% of total kill 4: 71 - 90% of total kill 5: 91 - 100% of total kill.

Amaranthus retroflexus [6] = test: Test on herbicidal activity by foliar application; conditions: A.r; 50 g/ha foliar spray, 2 - 4 leaf stage, 14 days
Text: as §2, §3

Avena fatua = test: Test on herbicidal activity by foliar application; conditions: A.f.; 50 g/ha foliar spray, 2 - 4 leaf stage, 14 days
Text: as §2, §3

Bidens pilosa [7] = test: Test on herbicidal activity by foliar application; conditions: B.p; 50 g/ha foliar spray, 2 - 4 leaf stage, 14 days
Text: as §2, §3

Cassia obtusifolia = test: Test on herbicidal activity by foliar application; conditions: C.o.; 50 g/ha foliar spray, 2 - 4 leaf stage, 14 days
Text: as §2, §3

Convolvulus arvensis = test: Test on herbicidal activity by foliar application; conditions: C.a.; 50 g/ha foliar spray, 2 - 4 leaf stage, 14 days
Text: as §2, §3

Digitaria adscendens = test: Test on herbicidal activity by foliar application; conditions: D.a.; 50 g/ha foliar spray, 2 - 4 leaf stage, 14 days
Text: as §2, §3

Echinochloa frumentaceum = test: Test on herbicidal activity by foliar application; conditions: E.f.; 50 g/ha foliar spray, 2 - 4 leaf stage, 14 days
Text: as §2, §3

Matricaria chamomilla [8] = test: Test on herbicidal activity by foliar application; conditions: M.c; 50 g/ha foliar spray, 2 - 4 leaf stage, 14 days
Text: as §2, §3

Setaria viridis [9] = test: Test on herbicidal activity by foliar application; conditions: S.v.; 50 g/ha foliar spray, 2 - 4 leaf stage, 14 days
Text: as §2, §3

Sinapis arvensis = test: Test on herbicidal activity by foliar application; conditions: S.a.; 50 g/ha foliar spray, 2 - 4 leaf stage, 14 days
Text: as §2, §3

Solanum nigrum [10] = test: Test on herbicidal activity by foliar application; conditions: S.n; 50 g/ha foliar spray, 2 - 4 leaf stage, 14 days
Text: as §2, §3

Stellaria media = test: Test on herbicidal activity by foliar application; conditions: S.m.; 50 g/ha foliar spray, 2 - 4 leaf stage, 14 days
Text: as §2, §3

Galium aparine = test: Test for selective herbicidal effect in post-emergence by treatment of stalks and leaves; conditions: 1 - to 2 - leaf stage, 21 days
Method: (§4) Wheat and the weed were reared from seeds in the planters in a glasshouse. When the young plants had reached the 1 - to 2 - leaf stage, the wettable powders prepared in the same manner as Preparation Example 1 described above were diluted with water to a prescribed concentration and sprayed uniformly to the stalks arid leaves of the plants and on the soil surface in the planters by a spray gun so that the acrive ingredient would be applied at a rate of 5 g/ha and 50 g/ha. Then the planters were kept in the glasshouse. Twenty-one days after said treatment, the herbicidal effect of the compositions on the weeds and phytotoxicity of the crops were observed and evaluated according to the following ratings.

Wheat = system: Wheat; parameters: key: 0: no inhibition; less than 31%; 2: 31 - 50%; 3: 51 - 70%; 4: 71 - 90%; 5: 91 - 100%; conditions: 1 - to 2 - leaf stage, 21 days
Method: as §4

## CC=NNc1ccc(C(=O)OC)c(S(=O)(=O)NC(=O)Nc2nc(OC)nc(OC)n2)c1 [Compound I-1]
Amaranthus retroflexus [1]; 0.25 ppm
  Growth inhibition rate: 3 (51 - 70%)
Amaranthus retroflexus [1]; 2.5 ppm
  Growth inhibition rate: 5 (91 - 100%)
Bidens pilosa [2]; 0.25 ppm
  Growth inhibition rate: 3 (51 - 70%)
Bidens pilosa [2]; 2.5 ppm
  Growth inhibition rate: 4 (71 - 90%)
Cyperus iria; 0.25 ppm
  Growth inhibition rate: 2 (31 - 50%)
Cyperus iria; 2.5 ppm
  Growth inhibition rate: 4 (71 - 90%)
Echinochloa crus-galli; 0.25 ppm
  Growth inhibition rate: 2 (31 - 50%)
Echinochloa crus-galli; 2.5 ppm
  Growth inhibition rate: 3 (51 - 70%)
Matricaria chamomilla [3]; 0.25 ppm
  Growth inhibition rate: 2 (31 - 50%)
Matricaria chamomilla [3]; 2.5 ppm
  Growth inhibition rate: 4 (71 - 90%)
Setaria viridis [4]; 0.25 ppm
  Growth inhibition rate: 3 (51 - 70%)
Setaria viridis [4]; 2.5 ppm
  Growth inhibition rate: 4 (71 - 90%)
Solanum nigrum [5]; 0.25 ppm
  Growth inhibition rate: 2 (31 - 50%)
Solanum nigrum [5]; 2.5 ppm
  Growth inhibition rate: 3 (51 - 70%)
Abutilon theophrasti
  Herbicidal activity: 5 (91 - 100% of total kill)
Amaranthus retroflexus [6]
  Herbicidal activity: 5 (91 - 100% of total kill)
Avena fatua
  Herbicidal activity: 2 (31 - 50% of total kill)
Bidens pilosa [7]
  Herbicidal activity: 5 (91 - 100% of total kill)
Cassia obtusifolia
  Herbicidal activity: 5 (91 - 100% of total kill)
Convolvulus arvensis
  Herbicidal activity: 5 (91 - 100% of total kill)
Digitaria adscendens
  Herbicidal activity: 4 (71 - 90% of total kill)
Echinochloa frumentaceum
  Herbicidal activity: 3 (51 - 70% of total kill)
Matricaria chamomilla [8]
  Herbicidal activity: 5 (91 - 100% of total kill)
Setaria viridis [9]
  Herbicidal activity: 3 (51 - 70% of total kill)
Sinapis arvensis
  Herbicidal activity: 5 (91 - 100% of total kill)
Solanum nigrum [10]
  Herbicidal activity: 5 (91 - 100% of total kill)
Stellaria media
  Herbicidal activity: 5 (91 - 100% of total kill)
Galium aparine; 5 g/ha post-emergence spray
  Growth inhibition rate (herbicidal effect): 5 (91 - 100%)
Galium aparine; 50 g/ha post-emergence spray
  Growth inhibition rate (herbicidal effect): 5 (91 - 100%)
Wheat; 5 g/ha post-emergence spray
  Growth inhibition rate (phytotoxicity of the crops): 0
Wheat; 50 g/ha post-emergence spray
  Growth inhibition rate (phytotoxicity of the crops): 0
